Assay [1] has as its target T1, A2A adenosine receptor (Mus musculus, UniProt Q60612).
T1 construct: from tissue; host or cells: isolated perfused C57Bl/6 mouse heart (my inference)
T1 sequence (Q60612 1-326): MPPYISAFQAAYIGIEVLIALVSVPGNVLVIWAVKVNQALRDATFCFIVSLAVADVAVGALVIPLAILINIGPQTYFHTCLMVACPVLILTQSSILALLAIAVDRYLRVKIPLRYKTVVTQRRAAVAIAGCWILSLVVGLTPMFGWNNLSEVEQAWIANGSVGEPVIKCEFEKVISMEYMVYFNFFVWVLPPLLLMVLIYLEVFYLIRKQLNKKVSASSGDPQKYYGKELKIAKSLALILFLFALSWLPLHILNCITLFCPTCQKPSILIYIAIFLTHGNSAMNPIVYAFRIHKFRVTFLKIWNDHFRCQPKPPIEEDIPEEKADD
Briefly: Potency at mouse receptor, current study, in A2A of Table 1. Type of assay: cell-based. Conditions: data from the current study (no reference). From the text: Measurement of cAMP accumulation.

In assay [2] the test system is eEPC adhesion to MCEC-1 cells. As to the kind of experiment: eEPC adhesion to MCEC-1 cells under static conditions. Type of assay: cell-based, mouse. To be noted: for IC50: read-out: IC50, inhibition of NECA-induced eEPC adhesion.
Assay [3] addresses A2A adenosine receptor (Cavia porcellus, UniProt P46616). Conditions: [15] Martin et al. (1993); NECA-stimulated atrium (A1) or aorta (A2A); cited from earlier work.
For assay [4], the system named is A2B adenosine receptor. Conditions: [15] Martin et al. (1993); NECA-stimulated atrium (A1) or aorta (A2A); cited from earlier work.
Another assay has as its target T2, A2B receptors (Mus musculus, UniProt Q60614).
T2 sequence (Q60614 1-332): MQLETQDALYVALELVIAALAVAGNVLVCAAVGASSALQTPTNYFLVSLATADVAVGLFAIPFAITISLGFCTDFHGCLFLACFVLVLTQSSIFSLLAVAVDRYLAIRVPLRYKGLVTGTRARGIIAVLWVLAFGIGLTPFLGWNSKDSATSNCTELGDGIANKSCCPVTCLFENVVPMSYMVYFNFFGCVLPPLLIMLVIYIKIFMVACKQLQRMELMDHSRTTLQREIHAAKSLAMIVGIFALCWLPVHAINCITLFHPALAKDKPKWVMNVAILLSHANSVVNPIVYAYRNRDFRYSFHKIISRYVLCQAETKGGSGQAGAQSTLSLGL
Briefly: NECA-stimulated cAMP accumulation in MCEC-1 cells. Conditions: data from the current study (no reference); for Affinity or potency (Ki, KD, KB, IC50 or EC50) at A2B, mouse (m), current study: 95% CI in parentheses.

The target of another assay is T3, A1 receptors (Mus musculus, UniProt Q60612).
T3 sequence (Q60612 1-326): T1 sequence (Q60612 1-326)
Briefly: Inhibition of forskolin-stimulated cAMP accumulation in mouse eEPCs. Conditions: read-out: EC50, antagonism of the action of CPA on forskolin-stimulated cAMP accumulation; eEPCs; 10 nmol/L CPA; 1 μmol/L forskolin.

For assay [5], the target named is T4, A2B adenosine receptor (Homo sapiens, UniProt P29275).
T4 sequence (P29275 1-332): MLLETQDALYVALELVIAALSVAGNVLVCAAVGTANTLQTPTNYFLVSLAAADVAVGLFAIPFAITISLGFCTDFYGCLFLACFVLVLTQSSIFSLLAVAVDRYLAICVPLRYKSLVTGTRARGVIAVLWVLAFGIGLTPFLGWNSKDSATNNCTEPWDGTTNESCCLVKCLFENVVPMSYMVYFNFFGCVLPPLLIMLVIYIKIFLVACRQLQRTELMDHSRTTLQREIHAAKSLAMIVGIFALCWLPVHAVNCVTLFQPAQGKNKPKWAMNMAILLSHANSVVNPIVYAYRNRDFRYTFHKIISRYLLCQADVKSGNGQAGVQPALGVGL
Conditions: [11] Feoktistov and Biaggioni (1998); NECA-stimulated HEL cells; cited from earlier work.

The target of assay [6] is A2A adenosine receptor (Rattus norvegicus, UniProt P30543). Conditions: cited from earlier work.
Chain of A2A adenosine receptor (Rattus norvegicus, UniProt P30543) (P30543 whole entry): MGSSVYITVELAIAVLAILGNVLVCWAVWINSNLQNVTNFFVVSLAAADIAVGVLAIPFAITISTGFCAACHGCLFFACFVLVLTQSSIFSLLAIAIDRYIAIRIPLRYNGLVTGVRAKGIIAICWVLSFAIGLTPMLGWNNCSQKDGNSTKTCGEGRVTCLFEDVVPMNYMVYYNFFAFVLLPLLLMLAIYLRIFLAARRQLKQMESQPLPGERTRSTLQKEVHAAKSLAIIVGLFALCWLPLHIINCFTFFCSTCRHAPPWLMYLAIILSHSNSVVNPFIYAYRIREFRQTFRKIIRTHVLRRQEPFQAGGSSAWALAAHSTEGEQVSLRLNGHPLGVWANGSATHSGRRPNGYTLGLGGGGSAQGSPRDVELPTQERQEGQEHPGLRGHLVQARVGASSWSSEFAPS
For assay [7], the target named is A2A adenosine receptor (Mus musculus, UniProt Q60613). Conditions: [13] Lopes et al. (2004), striatum, radioligand [3H]SCH58261, cited from earlier work.
Chain of A2A adenosine receptor (Mus musculus, UniProt Q60613) (Q60613 whole entry): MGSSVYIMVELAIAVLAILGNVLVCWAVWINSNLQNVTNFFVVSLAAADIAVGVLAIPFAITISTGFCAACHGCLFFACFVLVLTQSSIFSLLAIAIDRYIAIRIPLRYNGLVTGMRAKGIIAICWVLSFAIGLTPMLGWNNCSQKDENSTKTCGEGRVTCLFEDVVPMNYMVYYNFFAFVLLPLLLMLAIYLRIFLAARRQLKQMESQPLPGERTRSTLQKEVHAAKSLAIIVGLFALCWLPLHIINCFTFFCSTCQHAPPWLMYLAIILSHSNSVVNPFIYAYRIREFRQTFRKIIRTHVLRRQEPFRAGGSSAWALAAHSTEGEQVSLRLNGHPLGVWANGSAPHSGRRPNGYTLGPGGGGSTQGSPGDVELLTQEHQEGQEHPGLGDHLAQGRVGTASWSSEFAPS
For the next assay, the system named is HMVEC-c cells. As to the kind of experiment: cAMP accumulation in HMVEC-c cells. Type of assay: cell-based, human. The source says: Primary cultures of human cardiac microvascular endothelial cells (HMVEC-c) were obtained from Cambrex (Walkersville, Md.), and cultured using EGM™-2 MV growth medium (Cambrex). HMVEC-c from passages 2 to 5 were used. Measurement of cAMP accumulation.

In assay [8] the test system is eEPC adhesion to MCEC-1 cells. As to the kind of experiment: eEPC adhesion to MCEC-1 cells under flow conditions. In kind it is cell-based, mouse. To be noted: 10 μmol/L; shear stress 0.75 and 1 dyne/cm^2; 10 minutes. How it is done:
Analysis of cell adhesion under flow conditions. Adhesion assays under flow conditions were performed using a parallel plate flow chamber (Glycotech, Rockville, Md.) following the manufacturer's instructions. Cell suspension or cell-free medium were drown into chambers by a syringe pump (Model 44, Harvard Apparatus, Inc., Holliston, Mass.) at a constant rate to generate a desired wall shear stress (τ, dynes/cm2) using the formula τ=6Qμ/a^2b, where Q is flow rate, μ is medium viscosity, b is channel width, and a is channel height. […] Cell adhesion was determined by analysis of digitized video recordings using NIH Image software. Cell-based P-selectin enzyme-linked immunoassay To analyze cell-surface P-selectin expression, the inventors used a previously published method (Cleator et al., 2005). […] After washing and blocking, cells were incubated with 5 μg/mL rat anti-mouse CD62P antibodies (Fitzgerald Industries) or rat isotype-matched control antibody (BD Biosciences) for 1 hour. After washing, a secondary goat anti-rat horseradish peroxidase-conjugated antibody (Jackson ImmunoResearch, West Grove, Pa.) was added for 1 hour followed by washing and then analyzed at […] after addition of substrate.

A further assay relates to eEPCs. As to the kind of experiment: cAMP accumulation in mouse eEPCs (forskolin, NECA). To be noted: FIG. 1B.
Assay [9] relates to CE-EPC adhesion to HMVEC-c cells. As to the kind of experiment: Adhesion of human culture-expanded EPCs (CE-EPCs) to HMVEC-c cells. To be noted: increasing concentrations.

Read-outs that look alike come from different tables or passages of the source.

Chain of A2A adenosine receptor (Cavia porcellus, UniProt P46616) (P46616 whole entry): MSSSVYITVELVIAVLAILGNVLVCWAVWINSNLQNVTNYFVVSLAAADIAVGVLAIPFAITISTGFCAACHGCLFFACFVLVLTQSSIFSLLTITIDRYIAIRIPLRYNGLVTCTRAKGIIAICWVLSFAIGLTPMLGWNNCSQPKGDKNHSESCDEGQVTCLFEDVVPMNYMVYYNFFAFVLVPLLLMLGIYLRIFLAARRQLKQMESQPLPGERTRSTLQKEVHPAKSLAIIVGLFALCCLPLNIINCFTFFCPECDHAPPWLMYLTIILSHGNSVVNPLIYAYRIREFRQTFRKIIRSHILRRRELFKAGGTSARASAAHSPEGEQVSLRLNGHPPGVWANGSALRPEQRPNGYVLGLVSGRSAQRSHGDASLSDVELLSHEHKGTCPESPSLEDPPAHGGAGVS

In the case of `Cn1cnc2c(NC3CC4CCC3C4)ncnc21` (stereo not shown) [N-0861], the “Affinity or potency at A2A, mouse (m), current study, log” value on A2A adenosine receptor [1] was −6.3 log mol/L. For the same compound, in assay [2] (1 μmol/L NECA), the IC50 came to 1500 nM. At A2A adenosine receptor [3], the “Affinity or potency at A2A, guinea pig (gp)” value is 575 (±86) nmol/L and the “Affinity or potency at A2A, guinea pig (gp), log” value was 6.2 log mol/L. In addition, in the assay with A2B adenosine receptor [4], the “Affinity or potency at A2B, guinea pig (gp)” value is listed as “gp 56,200 nmol/L” and the “Affinity or potency at A2B, guinea pig (gp), log” value is “(±11,400), −4.3 [15] log mol/L”. Besides, on A2B receptors, the “Affinity or potency at A2B, mouse (m), current study, log” value is 65,610); −4.4 log mol/L and the “Affinity or potency (Ki, KD, KB, IC50 or EC50) at A2B, mouse (m), current study” value is “m 39,350 (23,600- nmol/L”. The half-maximal effective concentration (EC50) on A1 receptors came out at 511 nM.
As to `Nc1nc2c(cnn2CCc2ccccc2)c2nc(-c3ccco3)nn12` [SCH58261, 5-amino-7-(phenylethyl)-2-(2-furyl)-pyrazolo-[4,3-e]-1,2,4-triazolo-[1,5-c]-pyrimidine], in [2] (Mus musculus), the IC50 came out at 1700 nM. The “Effect on NECA-induced eEPC adhesion at lower concentrations” value in [2] (concentrations that selectively block A2A receptors, 1 μmol/L NECA) is recorded as “no effect”. On A2B adenosine receptor [5], the “Affinity or potency at A2B, human (h)” value is > 100 nM and the “Affinity or potency at A2B, human (h), log” value is given as > −5 log mol/L. On A2A adenosine receptor [6], the “Affinity or potency at A2A, rat (r), log” value was “r 2.3 (2-2.7); −8.6 [12] log mol/L”. Besides, the “Affinity or potency at A2A, mouse (m), log” value on A2A adenosine receptor [7] is recorded as −9.0 log mol/L. Further, the Ki at A2A adenosine receptor [7] (read-out: Affinity or potency at A2A, mouse (m)) is 1 nM. For the same compound, on A2B receptors, the “Affinity or potency at A2B, mouse (m), current study, log” value was 2,486); −5.7 log mol/L and the “Affinity or potency (Ki, KD, KB, IC50 or EC50) at A2B, mouse (m), current study” value is reported as “m 1,868 (1,404- nmol/L”.
For the compound `CCNC(=O)[C@H]1O[C@@H](n2cnc3c(N)ncnc32)[C@H](O)[C@@H]1O` [NECA, 5′-N-ethylcarboxamidoadenosine], the “Stimulation of cAMP accumulation” value in the assay on HMVEC-c cells was 5.1±0.1 fold. For the same compound, in assay [2] (1 μmol/L NECA), the “Time of half-maximal effect on eEPC adhesion” value was 5 min. Further, the EC50 in assay [2] (Mus musculus, 0.5 h, 30 minutes, read-out: EC50, increase of eEPC adhesion) is 139 nM. The compound further had an eEPC adhesion in assay [2] (maximal, concentration-dependent, 30 minutes, basal 4.5±0.3%) of 21.3±1.4%. Further, the “Effect on eEPC adhesion under laminar flow” value in [8] is on record as “significantly increased”. For the same compound, in the assay on eEPCs, the “Effect on cAMP in eEPCs” value is “did not elevate cAMP”. The “Effect on CE-EPC adhesion to HMVEC-c cells” value in [9] was “stimulated CE-EPC adhesion”.

These data come from US20090136460A1 (VANDERBILT UNIVERSITY, priority 2007, published 2009).
